Laboratory results published in EP4180035A1, “NOVEL BETA-LACTONE INHIBITORS OF HYDROLYTIC ENZYMES AND THEIR MEDICAL AND NON MEDICAL USES” (Max-Planck-Gesellschaft zur Förderung der Wissenschaften …, priority 2021, dated 2023).

Legend:
Assay type in all cases: biochemical
[1] = molecular target: T1, β5 subunit of the yeast 20S proteasome (Saccharomyces cerevisiae, UniProt P30656); experiment: IC50 determination with purified yeast 20S proteasome core particle (yCP), chymotrypsin-like activity, fluorogenic AMC substrate; conditions: yCP 0.05 mg/mL, 100 mM Tris-HCl pH 7.5; 45 min incubation at room temperature; Suc-Leu-Leu-Val-Tyr-AMC 200 µM (ChT-L); triplicate
T1 construct: purified yeast 20S proteasome core particle (yCP); host or cells: yeast
Protocol: (§1) The concentration of purified yCP was determined spectrophotometrically at 280 nm. yCP (final concentration: 0.05 mg/mL in 100 mM Tris-HCI, pH 7.5) was mixed with DMSO as a control or serial dilutions of the compound 1 in DMSO, thereby not surpassing a final concentration of 10% (v/v) DMSO. After an incubation time of 45 min at room temperature, fluorogenic substrates Boc-Leu-Arg-Arg-AMC, Z-Leu-Leu-Glu-AMC, and Suc-Leu-Leu-Val-Tyr-AMC (final concentration of 200 µM) were added to measure the residual activity of […], and chymotrypsin-like (ChT-L, β5 subunit), respectively. The assay mixture was incubated for another 60 min at RT and afterward diluted 1:10 in 20 mM Tris-HCI, pH 7.5. The AMC-molecules released by hydrolysis were measured in triplicate with a Varian Cary Eclipse Fluorescence Spectrophotometer (Agilent Technologies) at λexc = 360 nm and λem = 460 nm. Relative fluorescence units were normalized to the DMSO treated control. The calculated residual activities were plotted against the logarithm of the applied inhibitor concentration and fitted with GraphPad Prism 9. Half maximum inhibitory concentration (IC50) values were deduced from the fitted data.

[2] = molecular target: T2, β1 subunit of the yeast 20S proteasome (Saccharomyces cerevisiae, UniProt P38624); experiment: IC50 determination with purified yeast 20S proteasome core particle (yCP), caspase-like activity, fluorogenic AMC substrate; conditions: yCP 0.05 mg/mL, 100 mM Tris-HCl pH 7.5; 45 min incubation at room temperature; fluorogenic substrate 200 µM, caspase-like (C-L); read-out: binding affinities for β1
T2 construct: purified yeast 20S proteasome core particle (yCP); host or cells: yeast
Protocol: as §1

[3] = molecular target: T3, β2 subunit of the yeast 20S proteasome (Saccharomyces cerevisiae, UniProt P25043); experiment: IC50 determination with purified yeast 20S proteasome core particle (yCP), trypsin-like activity, fluorogenic AMC substrate; conditions: yCP 0.05 mg/mL, 100 mM Tris-HCl pH 7.5; 45 min incubation at room temperature; fluorogenic substrate 200 µM, trypsin-like (T-L); read-out: binding affinities for β2
T3 construct: purified yeast 20S proteasome core particle (yCP); host or cells: yeast
Protocol: as §1

IC50 [1]: 6.2 µM
IC50 [2]: 625 µM
IC50 [3]: 60 µM
Compound: CC(C)C1C(=O)OC1C(=O)O (stereo not drawn) [Compound 1, 3-isopropyl-4-oxo-2-oxetanecarboxylic acid]
